Usually melting point stands for the temperature of the solid-liquid transition.

From US7202274B2, “Cyclic hemiacetal derivative and use thereof” (Senju Pharmaceutical Co., Ltd., priority 2002, dated 2007) come the findings set out here.

The nature of data set [1]: Aqueous humor penetration test. Conditions: rabbit. Type of data set: in vivo, Japanese white rabbits. As to the method:
The suspension of Formulation Example 4 to be mentioned later was instilled by 50 μL into the both eyes of Japanese white rabbits (body weight about 2 kg, purchased from Fukusaki Rabbit Union). At 0.25, 0.5, 1 and 3 hr after the instillation, the rabbits were sacrificed with pentobarbital and aqueous humor was recovered. Using a column switching system HPLC, the concentration of Compound 1 in the aqueous humor was measured.

A further data set relates to N1E-115 cells. Type of data set: cell-based. Conditions: mouse, 24 h. As to the method: Mouse neuroblastoma derived cell lines (N1E-115 cells) were seeded in a 96 well microplate at 10^4 per well and cultured overnight in Dulbecco's Modified Eagle's Minimum Essential Medium (100 μL, DMEM, GIBCO) containing 10% FBS at 37° C. under 5% CO2. The whole amount of the culture solution was removed, and the medium was changed to various concentrations of a test drug solution (100 μL, prepared by dissolving Compound 1 in 99.5% ethanol and adjusting final concentration of ethanol to 1% with DMEM) and the cells were cultured for 24 hr. The culture supernatant and cells were separately recovered. The cells were ultrasonicated to give soluble fractions and the lactic dehydrogenase (LDH) activity of each of them was determined with an LDH cytotoxicity detection kit (MK401, manufactured by Takara Bio Inc.), and an LDH release rate was determined by the following formula and taken as a proportion of the cells suffered from cytotoxicity. LDH release rate (%)={LDH activity of culture supernatant/(LDH activity of culture supernatant+intracellular LDH activity)}×100
LD50 was determined from the LDH release rate at each test drug concentration by LD50/ED50 probit method of SAS preclinical package (Ver. 6.12).

Read-outs that look alike come from different tables or passages of the source.

On to `CC(C)C[C@H](NC(=S)Nc1ccccc1)C(=O)N[C@H]1CCOC1O` (stereo partly drawn) [Compound 1, (2S)-4-methyl-2-(((phenylamino)thioxomethyl)amino)-N-((3S)-tetrahydro-2-hydroxy-3-furanyl)pentanamide], for which the AUC in data set [1] (Japanese white, aqueous humor, topical, 50 μL per eye, 0-3 hr after the instillation of the suspension of Formulation Example 4, read-out: area under drug concentration-time curve (AUC) of amount penetrated to aqueous humor) was 4.79 µM·h. For the same compound, the Cmax in data set [1] (Japanese white, aqueous humor, topical, 50 μL per eye, 50 μL instillation of the suspension of Formulation Example 4, read-out: concentration in the aqueous humor, maximum (Cmax)) was found to be 2900 nM. In addition, the “time at which concentration in the aqueous humor reached the maximum” value in data set [1] (50 μL instillation of the suspension of Formulation Example 4) worked out at 0.5 h. For the same compound, the LDH release rate in the data set on N1E-115 cells (0.1 mM) is 9.32 ± 0.07%; with N1E-115 cells (0.5 mM), 11.05 ± 0.72%; in the data set with N1E-115 cells (1 mM), 14.22 ± 1.14%; with N1E-115 cells (2 mM), 47.73 ± 1.66%.
For the compound `CCC(C)[C@H](NC(=S)Nc1ccccc1)C(=O)N[C@H]1CCOC1O` (stereo partly drawn) [Compound 2, (2S)-3-methyl-2-(((phenylamino)thioxomethyl)amino)-N-((3S)-tetrahydro-2-hydroxy-3-furanyl)pentanamide], the melting point was 51.3 to 52.9 °C.
On the same count and under the same terms, the same measure for `Cc1ccccc1NC(=S)N[C@@H](CC(C)C)C(=O)N[C@H]1CCOC1O` (stereo partly drawn) [Compound 9, (2S)-4-methyl-2-((((2-methylphenyl)amino)thioxomethyl)amino)-N-((3S)-tetrahydro-2-hydroxy-3-furanyl)pentanamide]: 57.9 to 58.9 °C; for `Cc1cccc(NC(=S)N[C@@H](CC(C)C)C(=O)N[C@H]2CCOC2O)c1` (stereo partly drawn) [Compound 10, (2S)-4-methyl-2-((((3-methylphenyl)amino)thioxomethyl)amino)-N-((3S)-tetrahydro-2-hydroxy-3-furanyl)pentanamide]: 61.4 to 61.9 °C.
